Results: patent US20260216176A1, “USE OF PCLX-001 OR PCLX-002 AS A RADIOSENSITIZER” (ACYLEX PHARMACEUTICALS INC., priority 2023, published 2026)
Several values for one entry are separate records, joined by “and”; a condition that tells them apart may be missing. Equal entries are not always repeated. Where two headings read alike, the source gives them in different places.

Test: Plasma, brain and CSF pharmacokinetics and brain tissue accumulation in mice (LC-MS/MS)
Type: in vivo, male C57BL/6 mice
Details: for concentration at 0.5 h / Kp at 0.5 h: time point 0.50 h; for Kp at 0.25 h / concentration at 0.25 h: time point 0.25 h; for Cmax: read-out: C0/Cmax; for half-life: read-out: T½ (converted)
[1] = male, C57BL/6, mouse, brain, oral, 5 mg/kg, 5 mg/kg oral, individual animals, read-out: Brain Conc.
[2] = male, C57BL/6, mouse, brain, oral, 5 mg/kg, 5 mg/kg oral, read-out: Mean Brain Conc.
[3] = male, C57BL/6, mouse, brain/plasma, 5 mg/kg oral, read-out: B/P-Kp (brain to plasma ratio)
[4] = male, C57BL/6, mouse, plasma, oral, 5 mg/kg, 5 mg/kg oral, individual animals, read-out: Plasma Conc.
[5] = male, C57BL/6, mouse, plasma, oral, 5 mg/kg, 5 mg/kg oral, read-out: Mean Plasma Conc.
[6] = male, C57BL/6, mouse, oral gavage 5 mg/kg, Brain
[7] = male, C57BL/6, mouse, oral gavage 5 mg/kg, CSF
[8] = male, C57BL/6, mouse, oral gavage 5 mg/kg, Plasma

Cc1c(N[S+](=O)(O)c2c(Cl)cc(-c3ccnc(N4CCNCC4)c3)cc2Cl)c(CC(C)C)nn1C [PCLX-001]
concentration at 24 h (5 mg/kg oral, time point 1.00 h, individual animals, read-out: CSF Conc.): 2.72 nM and 8.67 nM and 3.50 nM
Plasma Conc. (5 mg/kg oral, time point 2.00 h, individual animals): 5724.05 nM and 5659.43 nM
concentration at 8 h (5 mg/kg oral, time point 2.00 h, individual animals, read-out: Brain Conc.): 185.79 nM and 81.69 nM and 204.51 nM
concentration at 24 h (5 mg/kg oral, time point 2.00 h, individual animals, read-out: CSF Conc.): 7.26 nM and 15.58 nM and 16.86 nM
Plasma Conc. (5 mg/kg oral, time point 4.00 h, individual animals): 13975.97 nM and 6234.47 nM and 11667.07 nM
concentration at 8 h (5 mg/kg oral, time point 4.00 h, individual animals, read-out: Brain Conc.): 243.03 nM and 114.75 nM and 171.09 nM
concentration at 24 h (5 mg/kg oral, time point 4.00 h, individual animals, read-out: CSF Conc.): 15.26 nM and 6.67 nM and 87.98 nM
Plasma Conc. (5 mg/kg oral, time point 8.00 h, individual animals): 2821.68 nM and 6573.92 nM and 6832.35 nM
concentration at 8 h (5 mg/kg oral, time point 8.00 h, individual animals, read-out: Brain Conc.): 135.06 nM and 148.56 nM
concentration at 24 h (5 mg/kg oral, time point 8.00 h, individual animals, read-out: CSF Conc.): 30.28 nM and 5.97 nM and 7.19 nM
Plasma Conc. (5 mg/kg oral, time point 24.00 h, individual animals): 6.38 nM and 4.10 nM
concentration at 8 h (5 mg/kg oral, time point 24.00 h, individual animals, read-out: Brain Conc.): 0.00 nM and 8.13 nM and 12.81 nM
concentration at 24 h (5 mg/kg oral, time point 24.00 h, individual animals, read-out: CSF Conc.): 0.00 nM
time of peak brain drug concentrations (after oral administration): approximately 4 h
concentration at 0.5 h (male, C57BL/6, mouse, CSF, oral, 5 mg/kg, 5 mg/kg oral, individual animals, read-out: CSF Conc.): 3.44 nM
concentration at 24 h (male, C57BL/6, mouse, CSF, oral, 5 mg/kg, 5 mg/kg oral, time point 24.00 h, individual animals, read-out: CSF Conc.): 0 nM
Kp at 0.25 h (male, C57BL/6, mouse, brain and CSF, 5 mg/kg oral, read-out: Brain/CSF-Kp): 13
concentration at 0.25 h [1]: 135 nM
concentration at 0.25 h [2]: 98.3 nM
concentration at 0.5 h [1]: 108 nM
concentration at 0.5 h [2]: 123 nM
concentration at 1 h (male, C57BL/6, mouse, brain, oral, 5 mg/kg, 5 mg/kg oral, time point 1.00 h, individual animals, read-out: Brain Conc.): 75.5 nM
concentration at 1 h (male, C57BL/6, mouse, brain, oral, 5 mg/kg, 5 mg/kg oral, time point 1.00 h, read-out: Mean Brain Conc.): 64.8 nM
concentration at 2 h (male, C57BL/6, mouse, brain, oral, 5 mg/kg, 5 mg/kg oral, time point 2.00 h, read-out: Mean Brain Conc.): 157 nM
concentration at 4 h (male, C57BL/6, mouse, brain, oral, 5 mg/kg, 5 mg/kg oral, time point 4.00 h, read-out: Mean Brain Conc.): 176 nM
concentration at 8 h (male, C57BL/6, mouse, brain, oral, 5 mg/kg, 5 mg/kg oral, time point 8.00 h, individual animals, read-out: Brain Conc.): 79.3 nM
concentration at 8 h (male, C57BL/6, mouse, brain, oral, 5 mg/kg, 5 mg/kg oral, time point 8.00 h, read-out: Mean Brain Conc.): 121 nM
concentration at 24 h (male, C57BL/6, mouse, brain, oral, 5 mg/kg, 5 mg/kg oral, time point 24.00 h, read-out: Mean Brain Conc.): 6.98 nM
Kp at 0.5 h (male, C57BL/6, mouse, brain/CSF, 5 mg/kg oral, read-out: Brain/CSF-Kp): 35
Kp at 1 h (male, C57BL/6, mouse, brain/CSF, 5 mg/kg oral, time point 1.00 h, read-out: Brain/CSF-Kp): 13.1
Kp at 2 h (male, C57BL/6, mouse, brain/CSF, 5 mg/kg oral, time point 2.00 h, read-out: Brain/CSF-Kp): 11.9
Kp at 4 h (male, C57BL/6, mouse, brain/CSF, 5 mg/kg oral, time point 4.00 h, read-out: Brain/CSF-Kp): 4.81
Kp at 8 h (male, C57BL/6, mouse, brain/CSF, 5 mg/kg oral, time point 8.00 h, read-out: Brain/CSF-Kp): 8.35
Kp at 0.25 h [3]: 0.01
Kp at 0.5 h [3]: 0.02
Kp at 1 h (male, C57BL/6, mouse, brain/plasma, 5 mg/kg oral, time point 1.00 h, read-out: B/P-Kp (brain to plasma ratio)): 0.01
Kp at 2 h (male, C57BL/6, mouse, brain/plasma, 5 mg/kg oral, time point 2.00 h, read-out: B/P-Kp (brain to plasma ratio)): 0.02
Kp at 4 h (male, C57BL/6, mouse, brain/plasma, 5 mg/kg oral, time point 4.00 h, read-out: B/P-Kp (brain to plasma ratio)): 0.02
Kp at 8 h (male, C57BL/6, mouse, brain/plasma, 5 mg/kg oral, time point 8.00 h, read-out: B/P-Kp (brain to plasma ratio)): 0.02
Kp at 24 h (male, C57BL/6, mouse, brain/plasma, 5 mg/kg oral, time point 24.00 h, read-out: B/P-Kp (brain to plasma ratio)): 1.24
concentration at 0.25 h [4]: 9590 nM
concentration at 0.25 h [5]: 8310 nM
concentration at 0.5 h [4]: 4650 nM
concentration at 0.5 h [5]: 6510 nM
concentration at 1 h (male, C57BL/6, mouse, plasma, oral, 5 mg/kg, 5 mg/kg oral, time point 1.00 h, individual animals, read-out: Plasma Conc.): 7240 nM
concentration at 1 h (male, C57BL/6, mouse, plasma, oral, 5 mg/kg, 5 mg/kg oral, time point 1.00 h, read-out: Mean Plasma Conc.): 8390 nM
concentration at 2 h (male, C57BL/6, mouse, plasma, oral, 5 mg/kg, 5 mg/kg oral, time point 2.00 h, individual animals, read-out: Plasma Conc.): 9730 nM
concentration at 2 h (male, C57BL/6, mouse, plasma, oral, 5 mg/kg, 5 mg/kg oral, time point 2.00 h, read-out: Mean Plasma Conc.): 7040 nM
concentration at 4 h (male, C57BL/6, mouse, plasma, oral, 5 mg/kg, 5 mg/kg oral, time point 4.00 h, read-out: Mean Plasma Conc.): 10600 nM
concentration at 8 h (male, C57BL/6, mouse, plasma, oral, 5 mg/kg, 5 mg/kg oral, time point 8.00 h, read-out: Mean Plasma Conc.): 5410 nM
concentration at 24 h (male, C57BL/6, mouse, plasma, oral, 5 mg/kg, 5 mg/kg oral, time point 24.00 h, individual animals, read-out: Plasma Conc.): 6.39 nM
concentration at 24 h (male, C57BL/6, mouse, plasma, oral, 5 mg/kg, 5 mg/kg oral, time point 24.00 h, read-out: Mean Plasma Conc.): 5.63 nM
AUC(0-t) [6]: 2.15 µM·h
Tmax [6]: 4 h
Cmax [6]: 176 nM
Kp (male, C57BL/6, mouse, oral gavage 5 mg/kg, Brain, read-out: T/P ratio (Tissue to plasma AUClast ratio)): 0.02
half-life [6]: 4.17 h
AUC(0-t) [7]: 0.166 µM·h
Tmax [7]: 4 h
Cmax [7]: 36.6 nM
AUC(0-t) [8]: 108 µM·h
Tmax [8]: 4 h
bioavailability [8]: 97%
Cmax [8]: 10600 nM
half-life [8]: 1.77 h
